The values below come from patent US20240180930A1, “CARBONIC ANHYDRASE 1 (CA1) INHIBITORS FOR THE TREATMENT OR PREVENTION OF MYELOPROLIFERATIVE DISORDERS AND OTHER HEMATOPOIETIC MALIGNANCIES, AND AS BIOMARKER OF MYELOPROLIFERATIVE DISORDERS AND OTHER HEMATOPOIETIC MALIGNANCIES” (COMMISSARIAT A L'ENERGIE ATOMIQUE ET AUX ENERGIES …, priority 2021, published 2024).

For test [1], the system named is CD34^+ cells from PV patients. In words: BFU-E from CD34+ cells of PV patients treated with furosemide. Particulars: 5 and 20 μg/mL of furosemide, 100% = absence of furosemide. In kind it is cell-based, human. The procedure: FIG. 9: CA1 protein expression and furosemide treatment of CD34^+ cells from PV patients. (A) CA1 protein expression in human CD34^+ cells from control and JAK2^V617F PV patients (left) (n=4) and (B) CA1 expression level normalized against GAPDH expression level (right). (C) Effects of 5 and 20 μg/mL of furosemide on the percentages of BFU-E from CD34^+ cells of PV patients (n=4). 100% is used as percentage of BFU-E in the absence of furosemide (N.T.). N) Relative percentage of JAK2^V617F Variant Allele Frequency (VAF) in the BFU-E after treatment with 5 and 20 ug/mL of furosemide. 100% is used as percentage of VAF in the BFU-E in the absence of furosemide (N.T.). Data are mean +/−s.e.m. Significance was assessed using unpaired 2-tailed t test and two way ANOVA followed by post-hoc analysis (*<0.05, **<0.01, ***<0.001, ****<0.0001).
Whole-transcriptome RNA-seq on CD34+ cell from Patients. The patients were selected for their high JAK2^V617F variant allele frequency (from 60 to 100% VAF). […] The RNA integrity (RNA Integrity Score>7.0) was checked on the Agilent 2100 Bioanalyzer (Agilent) and quantity was determined using Qubit (Invitrogen). […]

In a further test the test system is ICN1 leukemic cells. Put plainly: ICN1 leukemia in vivo survival. Set-up: species or system mouse. The procedure: ICN1 leukemia. Non-conditioned C57BL/6J (CD45.2) recipient mice were intravenously transplanted with 1.5×10^4 ICN1 leukemic cells in 100 uL of PBS. Seven days after transplantation, when blast cells are detected in the peripheral blood, recipient mice were daily treated or not by intravenous injection of furosemide at 20 mg/Kg.

In test [2] the test system is mice transplanted with JAK2^V617F BM cells. Put plainly: Single irradiated-leg mouse model of Polycythemia Vera, pharmacologic treatment. The format is in vivo. The source says:
Mice. The conditional flexed Jak2^V617F KI mice (Hasan et al.; Blood 122, 1464-1477; 2013) were crossed with VavCre transgenic (TG) mice (Croker et al., SOCS3 Is a Critical Physiological Negative Regulator of G-CSF Signaling and Emergency Granulopoiesis. Immunity 20, 153-165 (2004)) to express the mutant Jak2. To easily evaluate allele burden in kinetic experiments, Jak2^V617F KI/VavCre mice were also crossed with UbiGFP TG mice in Gustave Roussy' animal facilities. For one-leg transplantation, F1 crossed B6.SJL/BoyJ (CD45.1)×C57BL/6J (CD45.2) mice were used as recipient mice. All mice were housed in a specific pathogen-free section at an animal facility of CEA/DRF/IBFJ/iRCM according to the institutional guidelines and French Ministry of Agriculture's regulations.
One leg irradiation and transplantation. Recipient mice were anesthetized with ketamine-xylazine and their leg was fixed on a tray with only the leg left towards the opposite side to their body. The tray was put in the radiation field of a GSRD1 radiation equipment. The mouse body was shielded from irradiation with lead plates and the leg was irradiated at 2×5 Gy with an interval of 17 h. Bone marrow (BM) cells (1×10^7) were intravenously transplanted into the irradiated mice 7 hours after the second irradiation. For barcode and shRNA experiments, 10,000 transduced Lin^−Scal^+cKit^+ (LSK) hematopoietic cells were intrafemorally transplanted into irradiated leg under Isoflurane anesthetic.
Blood analysis. Blood was collected and analyzed through a hemocytometer (CD3700, ABBOTT). The rest of blood was subjected to hemolysis by using an ammonium chloride solution ([…]). The hemolyzed blood were stained with antibodies against CD45.1 (A20) and CD45.2 (104) and analyzed through flow cytometry to examine blood chimerism.
BM cells (femur and tibia) of irradiated leg and of non-irradiated leg were harvested by flushing with 1 mL of PBS. After centrifugation, BM supernatants were collected and kept at -80° C. with anti-protease (ROCHE) for chemokine analyses. BM cells were suspended in PBS and splenocytes were also collected in PBS by crushing spleen on a 70 μm filter. Before hemolysis, cells were stained with Ter119 (TER-119) and CD71 (C2) antibodies for the examination of erythroid compartments. The rest of cells were hemolyzed and stained for analyses of granulocytes, hematopoictic progenitor cells (HPCs) and hematopoietic stem cells (HSCs) by using antibodies against CD45.1 (A20), CD45.2 (104), CD11b (M1/70), Gr-1 (RB6-8C5), c-Kit (2B6), Sca-1 (D7 or E13-161.7), CD34 (RAM34 or MEC14.7), CD16/32 (93), CD48 (HM48-1) and CD150 (TC15-12F12.2). […] For cell cycle analyses, stained HSPCs were permeabilized with Cytofix/Cytoperm buffer following manufacturer's instructions (BD Biosciences) and labelled with anti-Ki67 antibody (SolA15) and Hoechst 33342. All antibodies were purchased from BioLegend, eBioscience, or BD Biosciences. Flow cytometry analyses were performed through FACS Canto II (BD Biosciences) and LSR II (BD Biosciences), and cell sorting was conducted by using FACS Aria II (BD Biosciences). Analyses were performed with the FlowJo software (TRISTAR) and illustrated with the Prism7 software (GraphPad).
Pharmacologic treatment. Furosemide was purchased from Sigma (MKCF8657), dissolved in DMSO for stock solution (50 mg/mL) and diluted in PBS solution prior to use. […] Spironolactone (SIGMA) was prepared in water bottles at 250 mg/Kg to treat recipient mice as described (Rafael-Fortney et al., Early treatment with lisinopril and spironolactone preserves cardiac and skeletal muscle in duchenne muscular dystrophy mice »; Circulation, 2011; 124:582-8). Acetozolamide was purchased from SIGMA (A6011), dissolved in PBS and solubilized with NaOH (35%) until complete dissolution of the product.

Take `NS(=O)(=O)c1cc(C(=O)O)c(NCc2ccco2)cc1Cl` [Furosemide, 4-chloro-2-(furan-2-ylmethylamino)-5-sulfamoylbenzoic acid]: the “JAK2^V617F variant allele frequency in the BFU-E” value in test [1] was “decreased”. The “percentages of BFU-E” value in test [1] (n=4) is recorded as “decreased”. For the same molecule, the survival rate entry in the test with ICN1 leukemic cells (furosemide 20 mg/Kg daily intravenous, starting 1 week after transplantation of 1.5×10^4 ICN1 leukemic cells (FIG. 7)) is given as “improved survival rate is also reproduced”; in test [2] (furosemide 20 mg/Kg daily intravenous, starting 2 weeks after transplantation (FIG. 4i)), “improved”. In addition, in the test with ICN1 leukemic cells (furosemide daily, starting 1 week after transplantation (FIG. 7)), the “in vivo leukemia progression” value is “Slowing”. In test [2] (furosemide 5 mg/Kg daily, starting two weeks after transplantation, compared with 20 mg/Kg (FIG. 8)), the “therapeutic effect (blood chimerism, spleen weight)” value is recorded as “therapeutic effect similar to the one obtained with 20 mg/Kg”. Further, the “JAK2^V617F cell burden in blood” value in test [2] (furosemide 20 mg/Kg daily intravenous, starting 2 weeks after transplantation of JAK2^V617F BM cells (FIG. 4g)) is recorded as “decreased”. The spleen weight result in test [2] (furosemide 20 mg/Kg daily intravenous, starting 2 weeks after transplantation, 8 weeks later (FIG. 4h)) is recorded as “decreased”; in test [2] (furosemide daily after PV establishment, starting 10 weeks after transplantation (FIG. 4l)) it was “decreased”. In addition, the PV blood parameters entry in test [2] (furosemide 20 mg/Kg daily intravenous, starting 2 weeks after transplantation, hematocrit and red blood cells count) is on record as “decreased”. Moreover, the “JAK2^V617F LT-HSC contribution to the LT-HSC compartment” value in test [2] (furosemide after PV establishment, before treatment (10 weeks) vs end of treatment (31 weeks) (FIG. 4m)) is listed as “significant decrease”. In addition, in test [2] (furosemide daily after PV establishment, starting 10 weeks after transplantation), the survival entry is “survival of the treated mice”. In addition, the “blood JAK2^V617F cell burden” value in test [2] (furosemide daily after PV establishment, starting 10 weeks after transplantation (FIG. 4j)) is “rapid, stable and Furosemide-dependent decrease”. Also, in test [2] (furosemide daily after PV establishment, starting 10 weeks after transplantation (FIG. 4k)), the hematocrit entry is “decreased”.
Regarding `CC(=O)S[C@@H]1CC2=CC(=O)CC[C@]2(C)[C@H]2CC[C@@]3(C)[C@@H](CC[C@@]34CCC(=O)O4)[C@H]12` [Spironolactone], the PV associated symptoms entry in test [2] (spironolactone 250 mg/Kg in water bottles, starting 2 weeks after transplantation) is “no effect”. Further, the “survival of mice with PV” value in test [2] (spironolactone 250 mg/Kg in water bottles, starting 2 weeks after transplantation (FIG. 5d)) is “no effect”.
